Measured values as given in PubChem BioAssay AID330 (DTP/NCI, 2004).
Several values for one entry are separate records, joined by “and”; a condition that tells them apart may be missing. Equal entries are not always repeated. Toxic doses and inconclusive results are not listed. The calls were made as follows: active = survival T/C of 150% or more; inactive = T/C below 125% in these data.

System: P388 leukemia ip, CD2F1 mice, survival T/C
Test: NCI In Vivo Anticancer Drug Screen. Data for tumor model P388 Leukemia (intraperitoneal) in CD2F1 (CDF1) mice
Details: endpoint: median survival time, higher = longer survival
How it was run: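 Mice carrying the transplanted tumor received test compound or vehicle. Survival was recorded in each group, and the value is the treated-group measurement divided by that of the vehicle-treated control group.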

[1] = dose: 50.0 mg/kg/injection, schedule: Q01DX005 (ip), vehicle: Klucel (hydroxypropylcellulose) (HPC)
[2] = dose: 100.0 mg/kg/injection, schedule: Q01DX005 (ip), vehicle: Klucel (hydroxypropylcellulose) (HPC)

Measured: T/C

COc1ccccc1[B-]12OCC[N+]1(CNC(=O)C1=C(O)C3(O)C(=O)C4=C(O)c5c(O)cccc5C(C)(O)C4CC3C(N(C)C)C1=O)CCO2 (stereo not drawn)
inactive: [1] 105 % of control | [2] 108 % of control | dose: 200.0 mg/kg/injection, schedule: Q01DX005 (ip), vehicle: Klucel (hydroxypropylcellulose) (HPC) 112 % of control

COc1c2c(cc3c1C(O)N(C)CC3)OCO2 (stereo not drawn)
inactive: dose: 30.0 mg/kg/injection, schedule: Q01DX005 (ip), vehicle: saline 100 % of control | dose: 60.0 mg/kg/injection, schedule: Q01DX005 (ip), vehicle: saline 100 % of control and 93 % of control

C=C(C)C(=O)OC1CC2=CC(CC3(C)OC3C3OC(=O)C(=C)C13)OC2=O (stereo not drawn)
inactive: dose: 2.25 mg/kg/injection, schedule: Q01DX009 (ip), vehicle: Klucel (hydroxypropylcellulose) (HPC) 100 % of control | dose: 2.3 mg/kg/injection, schedule: Q01DX009 (ip), vehicle: Klucel (hydroxypropylcellulose) (HPC) 103 % of control | dose: 4.5 mg/kg/injection, schedule: Q01DX009 (ip), vehicle: Klucel (hydroxypropylcellulose) (HPC) 100 % of control and 97 % of control | dose: 9.0 mg/kg/injection, schedule: Q01DX009 (ip), vehicle: Klucel (hydroxypropylcellulose) (HPC) 100 % of control and 111 % of control | dose: 18.0 mg/kg/injection, schedule: Q01DX009 (ip), vehicle: Klucel (hydroxypropylcellulose) (HPC) 114 % of control and 115 % of control

Cn1c(CCC(=O)O)c(CC(=O)O)c2ccccc21
inactive: dose: 100.0 mg/kg/injection, schedule: Q04DX002 (ip), vehicle: saline with Tween-80 99 % of control | dose: 200.0 mg/kg/injection, schedule: Q04DX002 (ip), vehicle: saline with Tween-80 97 % of control | dose: 400.0 mg/kg/injection, schedule: Q04DX002 (ip), vehicle: saline with Tween-80 108 % of control

CCCCCCCCCCCCCCCCC1=C(C(=O)OC)NC(N)=NC1O (stereo not drawn)
inactive: dose: 7.5 mg/kg/injection, schedule: Q01DX005 (ip), vehicle: saline with Tween-80 103 % of control | dose: 15.0 mg/kg/injection, schedule: Q01DX005 (ip), vehicle: saline with Tween-80 100 % of control | dose: 30.0 mg/kg/injection, schedule: Q01DX005 (ip), vehicle: saline with Tween-80 102 % of control | dose: 60.0 mg/kg/injection, schedule: Q01DX005 (ip), vehicle: saline with Tween-80 103 % of control | dose: 120.0 mg/kg/injection, schedule: Q01DX005 (ip), vehicle: saline with Tween-80 103 % of control | dose: 600.0 mg/kg/injection, schedule: Q01DX005 (ip), vehicle: saline with Tween-80 106 % of control

CN(c1ccccc1)C(C#N)CC(C)(C)C (stereo not drawn)
inactive: [1] 98 % of control | [2] 107 % of control

CCCC1CC[N-]CC1.CCCC1CC[N-]CC1.[Cl][Pt+2][Cl]
inactive: dose: 11.0 mg/kg/injection, schedule: Q01DX009 (ip), vehicle: saline with Tween-80 100 % of control | dose: 16.5 mg/kg/injection, schedule: Q01DX009 (ip), vehicle: saline with Tween-80 110 % of control | dose: 22.0 mg/kg/injection, schedule: Q01DX009 (ip), vehicle: saline with Tween-80 110 % of control | dose: 25.0 mg/kg/injection, schedule: Q01DX009 (ip), vehicle: saline with Tween-80 115 % of control | dose: 33.0 mg/kg/injection, schedule: Q01DX009 (ip), vehicle: saline with Tween-80 110 % of control | dose: 37.5 mg/kg/injection, schedule: Q01DX009 (ip), vehicle: saline with Tween-80 115 % of control | dose: 50.0 mg/kg/injection, schedule: Q01DX009 (ip), vehicle: saline with Tween-80 120 % of control

NC(N)=N/N=C1\C/C(=N\N=C(N)N)c2cc3ccccc3cc21
inactive: dose: 12.5 mg/kg/injection, schedule: Q01DX001 (ip), vehicle: saline with Tween-80 105 % of control | dose: 25.0 mg/kg/injection, schedule: Q01DX001 (ip), vehicle: saline with Tween-80 102 % of control | dose: 25.0 mg/kg/injection, schedule: Q01DX001 (ip), vehicle: saline 103 % of control | dose: 50.0 mg/kg/injection, schedule: Q01DX001 (ip), vehicle: saline with Tween-80 91 % of control | dose: 50.0 mg/kg/injection, schedule: Q01DX001 (ip), vehicle: saline 98 % of control | dose: 100.0 mg/kg/injection, schedule: Q01DX001 (ip), vehicle: saline with Tween-80 93 % of control | dose: 100.0 mg/kg/injection, schedule: Q01DX001 (ip), vehicle: saline 99 % of control

O=C1CC2(CCc3ccccc32)C(=O)N1CN1CCN(CCO)CC1 (stereo not drawn)
inactive: dose: 50.0 mg/kg/injection, schedule: Q01DX005 (ip), vehicle: saline 106 % of control | dose: 100.0 mg/kg/injection, schedule: Q01DX005 (ip), vehicle: saline 110 % of control | dose: 200.0 mg/kg/injection, schedule: Q01DX005 (ip), vehicle: saline 115 % of control
